From PMC3469822, “ATP-Driven Remodeling of the Linker Domain in the Dynein Motor” (Structure(London, England:1993), 2012)

Experiments:
[1] = target: T1, cytoplasmic dynein motor domain (380 kDa) (Dictyostelium discoideum, UniProt P34036); experiment: cryo-EM reconstruction of head, […] Å; format: binding; details: 1 mM ADP, 4 mM MgSO4, pH 7.0; ligand itself not resolved
T1 construct: gene dhcA; tail-less motor domain V1388-I4730, N-terminal His6 and FLAG tags, 380 kDa

[2] = target: T2, cytoplasmic dynein motor domain (380 kDa) (Dictyostelium discoideum, UniProt P34036, E2027Q); experiment: cryo-EM reconstruction of head, […] Å; format: binding; details: 1 mM ATP, 4 mM MgSO4, pH 7.0; AAA1 Walker B mutant that binds but does not hydrolyse ATP; ligand itself not resolved
T2 construct: gene dhcA; tail-less motor domain V1388-I4730, N-terminal His6 and FLAG tags, 380 kDa
T2 sequence (P34036 1388-4730 E2027Q): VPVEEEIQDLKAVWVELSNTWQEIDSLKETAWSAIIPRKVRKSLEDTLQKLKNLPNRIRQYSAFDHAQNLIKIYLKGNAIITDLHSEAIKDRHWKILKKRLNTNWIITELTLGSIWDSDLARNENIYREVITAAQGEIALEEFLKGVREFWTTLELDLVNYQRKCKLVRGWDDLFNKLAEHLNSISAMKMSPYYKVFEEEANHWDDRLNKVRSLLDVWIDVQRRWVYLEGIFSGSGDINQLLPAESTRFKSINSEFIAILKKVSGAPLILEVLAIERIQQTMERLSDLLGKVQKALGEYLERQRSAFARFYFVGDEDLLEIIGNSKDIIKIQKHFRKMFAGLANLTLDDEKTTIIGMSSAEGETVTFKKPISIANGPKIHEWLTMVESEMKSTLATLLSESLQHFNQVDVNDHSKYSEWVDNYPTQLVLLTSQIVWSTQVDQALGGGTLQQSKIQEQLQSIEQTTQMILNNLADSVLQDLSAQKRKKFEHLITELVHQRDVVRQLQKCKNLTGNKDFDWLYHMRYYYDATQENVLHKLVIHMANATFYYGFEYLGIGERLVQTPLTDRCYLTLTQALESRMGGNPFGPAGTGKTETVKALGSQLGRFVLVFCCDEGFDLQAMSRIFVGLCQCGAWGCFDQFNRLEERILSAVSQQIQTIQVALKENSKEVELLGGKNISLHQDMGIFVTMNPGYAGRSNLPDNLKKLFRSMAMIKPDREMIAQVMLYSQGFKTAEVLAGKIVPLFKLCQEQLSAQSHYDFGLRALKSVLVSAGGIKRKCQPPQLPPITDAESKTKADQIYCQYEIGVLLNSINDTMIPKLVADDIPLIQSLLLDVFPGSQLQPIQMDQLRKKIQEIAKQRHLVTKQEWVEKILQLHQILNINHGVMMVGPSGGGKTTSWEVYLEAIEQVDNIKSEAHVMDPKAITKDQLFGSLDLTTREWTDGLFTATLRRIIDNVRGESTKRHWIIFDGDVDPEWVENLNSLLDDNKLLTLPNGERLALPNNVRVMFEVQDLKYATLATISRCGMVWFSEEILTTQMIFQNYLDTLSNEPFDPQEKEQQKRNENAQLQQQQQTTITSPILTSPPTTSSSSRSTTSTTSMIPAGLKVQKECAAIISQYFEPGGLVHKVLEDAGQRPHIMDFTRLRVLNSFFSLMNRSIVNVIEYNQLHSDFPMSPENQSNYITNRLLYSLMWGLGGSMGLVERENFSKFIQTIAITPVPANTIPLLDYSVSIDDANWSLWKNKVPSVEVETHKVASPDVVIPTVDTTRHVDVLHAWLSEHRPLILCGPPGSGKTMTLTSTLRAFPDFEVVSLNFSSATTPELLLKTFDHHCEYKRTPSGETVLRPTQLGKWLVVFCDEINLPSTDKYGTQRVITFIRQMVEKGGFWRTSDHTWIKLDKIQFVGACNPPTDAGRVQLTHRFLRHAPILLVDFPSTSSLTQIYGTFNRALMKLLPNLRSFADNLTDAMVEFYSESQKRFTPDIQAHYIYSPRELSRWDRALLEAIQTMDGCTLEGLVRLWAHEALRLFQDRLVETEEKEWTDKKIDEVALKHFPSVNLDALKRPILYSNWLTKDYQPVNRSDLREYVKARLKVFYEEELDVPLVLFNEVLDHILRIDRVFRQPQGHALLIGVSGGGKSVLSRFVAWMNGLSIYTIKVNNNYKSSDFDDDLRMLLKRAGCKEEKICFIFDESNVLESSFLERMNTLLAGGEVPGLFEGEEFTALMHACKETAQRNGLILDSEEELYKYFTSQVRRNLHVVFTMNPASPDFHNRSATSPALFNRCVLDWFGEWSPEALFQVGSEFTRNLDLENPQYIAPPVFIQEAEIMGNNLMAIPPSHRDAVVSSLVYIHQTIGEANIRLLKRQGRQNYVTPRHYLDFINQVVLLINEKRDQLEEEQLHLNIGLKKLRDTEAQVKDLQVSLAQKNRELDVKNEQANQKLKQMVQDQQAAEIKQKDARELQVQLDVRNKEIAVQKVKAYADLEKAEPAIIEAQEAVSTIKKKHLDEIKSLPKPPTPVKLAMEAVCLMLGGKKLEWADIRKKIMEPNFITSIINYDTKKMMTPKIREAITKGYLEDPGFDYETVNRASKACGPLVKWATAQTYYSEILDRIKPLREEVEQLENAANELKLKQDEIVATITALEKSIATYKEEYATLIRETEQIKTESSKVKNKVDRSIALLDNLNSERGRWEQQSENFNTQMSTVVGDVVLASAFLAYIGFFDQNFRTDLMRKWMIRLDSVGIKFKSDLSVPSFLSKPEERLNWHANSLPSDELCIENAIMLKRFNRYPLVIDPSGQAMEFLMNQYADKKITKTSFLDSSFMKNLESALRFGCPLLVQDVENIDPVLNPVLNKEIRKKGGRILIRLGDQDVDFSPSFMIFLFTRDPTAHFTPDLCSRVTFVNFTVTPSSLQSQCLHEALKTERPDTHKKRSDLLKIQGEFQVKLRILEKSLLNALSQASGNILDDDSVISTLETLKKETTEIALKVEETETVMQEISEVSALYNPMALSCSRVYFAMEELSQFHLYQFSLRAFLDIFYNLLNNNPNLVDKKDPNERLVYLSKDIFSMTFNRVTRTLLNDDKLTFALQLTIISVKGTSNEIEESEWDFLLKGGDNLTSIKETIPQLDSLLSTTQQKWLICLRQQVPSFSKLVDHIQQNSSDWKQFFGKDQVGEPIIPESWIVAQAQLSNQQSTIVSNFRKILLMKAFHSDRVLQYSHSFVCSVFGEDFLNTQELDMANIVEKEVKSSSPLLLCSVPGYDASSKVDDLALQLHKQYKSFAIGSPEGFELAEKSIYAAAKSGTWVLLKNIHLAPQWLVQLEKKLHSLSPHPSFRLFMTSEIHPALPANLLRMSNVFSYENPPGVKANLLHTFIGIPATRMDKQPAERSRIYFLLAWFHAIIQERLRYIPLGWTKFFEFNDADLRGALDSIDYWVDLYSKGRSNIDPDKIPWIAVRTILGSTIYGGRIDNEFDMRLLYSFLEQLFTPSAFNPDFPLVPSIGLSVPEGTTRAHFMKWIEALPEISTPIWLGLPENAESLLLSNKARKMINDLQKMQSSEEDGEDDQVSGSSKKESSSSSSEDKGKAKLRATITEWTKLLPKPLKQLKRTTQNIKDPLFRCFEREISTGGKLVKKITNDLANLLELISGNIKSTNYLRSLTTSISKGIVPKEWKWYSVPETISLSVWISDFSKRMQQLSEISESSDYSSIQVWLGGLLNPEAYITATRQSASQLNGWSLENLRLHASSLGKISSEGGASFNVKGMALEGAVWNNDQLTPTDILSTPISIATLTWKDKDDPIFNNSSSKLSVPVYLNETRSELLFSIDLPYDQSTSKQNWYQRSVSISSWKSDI

T1 sequence (P34036 1388-4730): as the sequence (P34036 1388-4730 E2027Q) above, with Q640E counted along it

Row | SMILES | cryo-EM reconstruction of head, 23 Å [1] | cryo-EM reconstruction of head, 25 Å [2]
1 | Nc1ncnc2c1ncn2[C@@H]1O[C@H](COP(=O)(O)OP(=O)(O)O)[C@@H](O)[C@H]1O [ADP] | Cryo-EM reconstruction of the head domain of cytoplasmic dynein in the presence of ADP | –
2 | Nc1ncnc2c1ncn2[C@@H]1O[C@H](COP(=O)(O)OP(=O)(O)OP(=O)(O)O)[C@@H](O)[C@H]1O [ATP] | – | cytoplasmic dynein head, bearing a E2027Q substitution, in the ATP state
